Data: patent US20150315146A1, “USE OF SUBSTITUTED 1-(ARYL ETHYNYL)-, 1-(HETEROARYL ETHYNYL)-, 1-(HETEROCYCLYL ETHYNYL)- AND 1-(CYCLOALKENYLETHYNYL)-BICYCLOALKANOLS AS ACTIVE AGENTS AGAINST ABIOTIC PLANT STRESS” (BAYER CROPSCIENCE AG, priority 2012, published 2015)

Experiments:
Assay in all cases: Drought stress test on potted crop plants in greenhouse, spray application, efficacy from damage values
Type in all cases: in vivo
[1] = tested on: Triticum aestivum (TRZAS); conditions: topical, percentage reduction in the intensity of damage, read-out: EF (TRZAS) efficacy; for pest or weed control at 250 g/ha: dosage 250 g/ha
Description: (§1) Seeds of monocotyledonous and dicotyledonous crop plants were laid out in sandy loam in wood-fiber pots, covered with soil or sand and cultivated in a greenhouse under good growth conditions. The test plants were treated at the early leaf stage (BBCH10-BBCH13). To assure uniform water supply before commencement of stress, the potted plants were supplied with water by dam irrigation prior to substance application. The compounds according to the invention, formulated in the form of wettable powders (WP), were sprayed onto the green parts of the plants as an aqueous suspension at an equivalent water application rate of 600 l/ha with addition of 0.2% wetting agent (e.g. agrotin). Substance application was followed immediately by stress treatment of the plants. For this purpose, the pots were transferred into plastic inserts in order to prevent them from subsequently drying out too quickly. Drought stress was induced by gradual drying out under the following conditions: “Day”: 14 hours with illumination at 26° C. “Night”: 10 hours without illumination at 18° C. The duration of the respective stress phases was guided mainly by the state of the untreated, stressed control plants and thus varied from crop to crop. It was ended (by re-irrigating and transfer to a greenhouse with good growth conditions) as soon as irreversible damage was observed on the untreated, stressed control plants. In the case of dicotyledonous crops, for example oilseed rape and soya, the duration of the drought stress phase varied between 3 and 6 days, in the case of monocotyledonous crops, for example wheat, barley or corn, between 6 and 11 days. The end of the stress phase was followed by an approx. 5-7-day recovery phase, during which the plants were once again kept under good growth conditions in a greenhouse. In order to rule out any influence of the effects observed by any fungicidal or insecticidal action of the test compounds, it was additionally ensured that the tests proceeded without fungal infection or insect infestation. After the recovery phase had ended, the intensities of damage were analyzed in visual comparison to untreated, unstressed controls of the same age. The intensity of damage was first recorded as a percentage (100%=plants have died, 0%=like control plants). These values were then used to calculate the efficacy of the test compounds (=percentage reduction in the intensity of damage as a result of substance application) by the following formula: [formula] EF: efficacy (%) DVus: damage value of the untreated, stressed control DVts: damage value of the plants treated with test compound In each trial, 3 pots per crop and dosage were treated and evaluated; the resulting efficacies are thus averages. The values in tables A-1 to A-3 below are again averages from one to three independent trials. BRSNS=Brassica napus TRZAS=Triticum aestivum ZEAMX=Zea mays

Zea mays (ZEAMX) = conditions: percentage reduction in the intensity of damage
Description: as §1

Brassica napus (BRSNS) = conditions: spray at 600 l/ha water, averages from one to three trials
Description: as §1

| SMILES | pest or weed control at 250 g/ha [1] [%] | EF (ZEAMX) efficacy (Zea mays (ZEAMX); dosage 250 g/ha) [%] | EF (BRSNS): efficacy = percentage reduction in the intensity of damage as a result of substance application (Brassica napus (BRSNS); dosage 25 g/ha) [%] | pest or weed control at 25 g/ha ([1]; dosage 25 g/ha) [%] | EF (BRSNS): efficacy = percentage reduction in the intensity of damage as a result of substance application (Brassica napus (BRSNS); dosage 250 g/ha) [%] | EF (ZEAMX) efficacy (Zea mays (ZEAMX); dosage 25 g/ha) [%] |
| --- | --- | --- | --- | --- | --- | --- |
| COC(=O)c1ccccc1C#CC1(O)C(C)CCC2C1C2(C)C (stereo not drawn) [I.35-26] | > 5 | >5 |  |  |  |  |
| CC12CCC(C1)C(C)(C)C2(O)C#Cc1ccccc1F (stereo not drawn) [I.1-1] | > 5 | >5 | >5 |  |  |  |
| COC(=O)c1ccccc1C#CC1(O)C2CCC(C2)C12CC2 (stereo not drawn) [I.29-26] |  |  |  | > 5 |  |  |
| COC(=O)c1ccccc1C#CC1(O)C2CC3CC(C2)CC1C3 (stereo not drawn) [I.19-30] | > 5 |  | >5 |  |  |  |
| CC12CCC(C1)C(C)(C)C2(O)C#Cc1ccccc1NS(C)(=O)=O (stereo not drawn) [I.1-88] |  |  |  |  | >5 |  |
| COC(=O)c1ccccc1C#CC1(O)C2(C)CCC(C2)C1(C)C (stereo not drawn) [I.1-116] | > 5 |  | >5 |  |  | >5 |
| CC(=O)Oc1ccccc1C#CC1(O)C2(C)CCC(C2)C1(C)C (stereo not drawn) [I.1-79] | > 5 |  |  |  | >5 | >5 |
| COC(=O)c1cc(C)ccc1C#CC1(O)CC2CCC1C2 (stereo not drawn) [I.21-33] | > 5 | >5 |  |  | >5 |  |
| CC12CCC(C1)C(C)(C)C2(O)C#Cc1ccccc1CC#N (stereo not drawn) [I.1-74] | > 5 | >5 |  |  | >5 |  |
